For `C#CCn1nc(-c2ccc(Cl)cc2)n(CC)c1=O`, the melting point lay in the range of 115 to 119 °C. In turn, `O=C(CCl)c1ncccn1` yielded a melting point of 73 to 80 °C. For the compound `O=c1[nH]c2ccc(F)cc2c(=O)n1CCCN1CC=C(c2ccc(Cl)cc2)CC1`, the melting point fell in the range of 192 to 193 °C. For `O=C(Nc1ccncc1)C1=C(O)CCn2c1nc1ccccc12` the value was 274 to 276 °C; for `CS(=O)(=O)c1ccc(-c2c(-c3ccccc3F)[nH]c3ccc(Cl)cc23)cc1`, 246 to 248 °C; for `O=[N+]([O-])c1ccc(-c2nsc(Cl)n2)cc1`, 143 to 145 °C. The compound `CCOC(=O)c1cn(C)c2cnc3c(F)c(Cl)c(F)cc3c2c1=O` showed a melting point of 293 °C. On to `COC(=O)COc1c2ccccc2cc2c1c1c(C(N)=O)cccc1n2Cc1ccccc1`, for which the melting point was in the range of 120 to 125 °C. For `COC(=O)Cc1c(Br)csc1Br` the value was 38.5 to 39 °C. `Cc1nc(-c2cccnc2)sc1-c1ccnc(Nc2ccc(N3CCOCC3)cc2)n1` gave a melting point of 240 to 242 °C. Compound `CCCCc1nc2c(N)nc3cccnc3c2n1CCNC(=O)OC(C)(C)C` gave a melting point of 118 to 120 °C. As for `O=c1cc(C(F)(F)F)c2ccc(N3CCOCC3)nc2o1`, the figure is 218 to 220 °C; as for `CN(C)CCC(=O)N1Cc2cccc3c2N(CC3)c2ccccc21`, 91 to 92.5 °C. For `Clc1c2ccccc2nc2c1cnn2C1CCCC1` the value was 97 to 98 °C; for `Cc1ccc(S(=O)(=O)NCCCCSc2ccc(NS(C)(=O)=O)cc2)cc1`, 95 to 96 °C.

Compound `Nc1c2c(nc3ccccc13)CCS2` gave a melting point of 210 to 212 °C.

As to `CS(=O)c1ccc(-c2nn(CC3CC3)c(=O)cc2-c2ccc(Cl)cc2)cc1` (centres undefined), the melting point worked out at 152 °C. For `CN1CC(CCN2CCOCC2)c2nc3ccccc3n2C1=O` (centres undefined), the melting point lay within 111 to 112 °C. As for `Cc1cccc(OS(=O)(=O)c2ccc(N3CCCNC3=O)cc2)c1`, the figure is 145 to 147 °C; as for `Cc1c(C#N)sc2nc(Cc3ccccc3)nc(N3CCOCC3)c12`, 88 to 90 °C; as for `CCC(C(C)C)C1OC1C(C)C1CCC2C3CCC4=CC(=O)CCC4(C)C3CCC12C` (centres undefined), 111 to 112 °C.

For the compound `CN(CCCN1c2ccccc2CCc2ccccc21)c1ncccc1C(=O)O`, the melting point lay within 133 to 135 °C.

Compound `CCCCCCCCCCCCCCCc1cc2cc(C(=O)O)ccc2n1C` yielded a melting point of 127 to 128 °C. As for `COC(=O)c1ccc(C(=O)Nc2ccc(-n3nc(C(F)(F)F)cc3C(F)(F)F)cc2)cc1`, the figure is 195 to 196 °C; as for `O=S1(=O)N=C(NC2CCN(Cc3ccccc3)C2)Nc2ccc(Cl)cc21` (centres undefined), 208 to 210 °C; as for `CC(=O)Nc1nc2c(nc(F)n2COCCOC(C)=O)c(=O)[nH]1`, 196 to 198 °C. `CN(C)S(=O)(=O)c1cc2c(c(Cl)c1Cl)OC(C(=O)OCC(=O)OC(c1ccccc1)c1ccccc1)C2` (centres undefined) returned a melting point of 56 to 58 °C. The compound `CCCCCCCCOc1ccc(-c2ncc(O)cn2)c(F)c1F` gave a melting point of 84 to 85 °C. The compound `CCCCNC(=O)CNC(=O)CN1CCCC1=O` gave a melting point of 105 to 106 °C. As for `CC1=C(c2ccncc2)SCC(=O)N1C`, the figure is 139 to 140 °C; as for `CC(C)(C)NS(=O)(=O)Cc1cc(Br)c(NC(=O)C(F)(F)F)c(Br)c1`, 166 to 167 °C; as for `Cc1nc(C)c(Cl)c(NCc2cccc(Oc3ccc4ncc([N+](=O)[O-])n4n3)c2)n1`, 222 to 223 °C. As to `COC(=O)[C@H]1C[C@H](NC(=O)Cc2ccccc2)c2c(Cl)cc(Cl)cc2N1` (relative stereo), the melting point was 226 to 228 °C. For `COc1cc2ccc(C(=N)NO)cc2cc1OC` the value was 203 to 208 °C. The compound `Cc1ccc(S(=O)(=O)N[C@@H](C)C(=O)N[C@@H](Cc2ccccc2)C(=O)OCc2ccccc2)cc1` came in with a melting point of 109 to 110 °C. For `O=C(c1ccccc1)c1noc(CS(=O)c2ccccc2)n1` (centres undefined) the value was 79 to 81 °C; for `C=CCSc1cc(C(=O)O)cc(N)c1Oc1ccccc1`, 142 to 143 °C. In turn, `CCOC(=O)c1cc(OC)c2c(c1)C(=O)c1c(F)ccc(OC)c1C2=O` came in with a melting point of 201 to 203 °C. In turn, `C=C(C)COc1ccc2c(=O)c(C)c(-c3ccccc3)oc2c1C(=O)C=Cc1cc(OC)c(OC)c(OC)c1` displayed a melting point of 82 to 84 °C.

Consider `CCCCCCCCCCCC(=O)c1ccc(-c2ccc(O)c(F)c2)cc1`, for which the melting point is 123 to 124 °C.

Turning to `COc1ccc2c(c1)CC(C)C1C2C(C)CC2(C)C(O)CCC12` (centres undefined), the melting point lay within 130 to 131 °C. For `Cc1cccc(Br)c1C(=O)N[C@@H](Cc1ccc(-c2c(C)n(C)c(=O)n(C)c2=O)cc1)C(=O)O` the value was 240 to 242 °C. `CN(Cc1ccccc1)c1nc(N2CCC(NCC(c3ccccc3)c3ccccc3)CC2)nc2c(N3CCOCC3)ncnc12` showed a melting point of 106 to 108 °C. `CC(C)c1ccc(C(=O)C2=C(O)C(=O)N(c3ccc(OCc4ccccc4)nn3)C2c2ccc(OC(F)(F)F)cc2)cc1` (centres undefined) showed a melting point of 269 °C. For `CCOP1(=O)OCc2ccccc21` (centres undefined) the value was 60 °C; for `COC(=O)c1[nH]c2c(C)ccc(C)c2c1Cl`, 115 to 116 °C. As for `CCCCc1ncc(/C=C2/C(=O)NC(=O)N2C)n1Cc1ccc(C(=O)O)cc1`, the figure is 248 to 250 °C. In turn, `Cc1oc(=O)c(Nc2ccc(I)cc2)nc1Cl` registered a melting point of 203 to 205 °C.

In turn, `CCN1C=C(N=[N+]=[N-])N=C(C2CC2)c2ccccc21` returned a melting point of 158 to 160 °C. Take `CON=C(c1ccccc1COc1ccc(Cl)cc1)c1ncnn1C`: the melting point is 113 to 114 °C. Take `COC(CNC(=O)CCN1C(=O)NC(C)(C)C1=O)OC`: the melting point was 123 °C. For `O[C@@H]1CCCC[C@H]1N=Cc1ccccc1` (relative stereo) the value was 86 °C. In the case of `Cn1c2cc(Cl)ccc2c2c(Cl)nc(-c3ccncc3)nc21`, the melting point was 272 to 274 °C.

`COc1ccc(C(=O)c2ccc(OCc3nc(-c4ccccc4)oc3C)cc2)c(OC(C(=O)O)C(C)C)c1` (centres undefined) gave a melting point of 87 to 88 °C. As for `CC(C)(O)C#Cc1c(F)c(F)c(-c2c(F)c(F)c(C#CC(C)(C)O)c(F)c2F)c(F)c1F`, the melting point was in the range of 119 to 121 °C. As for `COc1ccc(-c2sc3cc(OC)ccc3c2C(=O)c2cc(OC)cc(OC)c2)cc1`, the figure is 114 to 120 °C.

Regarding `Cc1cc(OS(=O)(=O)C(F)(F)F)ccc1S(C)(=O)=O`, the melting point worked out at 51 °C. For `CSc1noc(-c2ccc(OCCOc3ccc(C)cc3)cc2)c1C#N` the value was 139 to 140 °C. As for `COc1nn(Cc2ccc(OCc3nc(-c4ccccc4)oc3C)cc2)cc1CCC(=O)O`, the figure is 127 to 128 °C. As for `COc1ccc(OC)c(C(O)CNC(=O)CN)c1` (centres undefined), the figure is 106 to 107 °C; as for `Nc1nc(-c2ccncc2)nc(N)c1N`, 230 to 232 °C; as for `O=c1[nH]c(C2CCCN(Cc3ccccc3)C2)cc2ccccc12` (centres undefined), 176 to 178 °C. Regarding `COc1ccccc1NC(=O)Nc1ccc(CC(=O)O)cc1`, the melting point was in the range of 165 to 168 °C.

`NC1=C2C=NN=C2N(c2ccccc2)CN1c1ccccc1` displayed a melting point of 244 to 246 °C. Turning to `CN1CCN(C2=Nc3ccccc3N=C(c3ccccc3)C2)CC1`, the melting point was 155 to 157 °C. In the case of `NC(=NCCCc1ccccn1)NCCCc1c[nH]cn1`, the melting point was 85 to 86 °C. For `CCOC(C)=C(C#N)C(=O)Nc1ccccc1C` the value was 179 to 181 °C.

Take `CS(=O)(=O)Oc1cc(C=CC(=O)c2ccccc2)cc([N+](=O)[O-])c1OS(C)(=O)=O`: the melting point was 181 to 184 °C. For `CC(=O)Nc1ccc(OCc2nc3ccccc3o2)cc1C` the value was 160 °C; for `Cc1nc(C(=O)NS(=O)(=O)c2c(C)csc2C(=O)OC(C)C)no1`, 142 °C; for `CC(C)(C)c1ccc(C(O)CCCN2CCC(C3(O)c4ccccc4COc4ccccc43)CC2)cc1` (centres undefined), 135 to 137 °C. For `CC(C)(C)c1cc(NC(=O)Nc2ccc(Oc3ccncc3)cc2)[nH]n1` the value was 178 to 179 °C. For `O=S1(=O)NCN(C2CC2)c2cc(Br)cc(C(F)(F)F)c21` the value was 200 to 201 °C; for `NS(=O)(=O)c1ccc(N2C(=O)CN(c3ccccc3)C2=O)c(Cl)c1`, 241 to 243 °C. For the compound `CCOC(=O)c1cnc2c(O)nccn2c1=O`, the melting point is > 300 °C. For `C=CS(=O)(=O)CS(=O)(=O)C=C` the value was 59 to 61 °C; for `COc1ccc(Cc2cc(O)ccc2OC)cn1`, 121 to 124 °C; for `O=C(C=P(c1ccccc1)(c1ccccc1)c1ccccc1)CCCOc1ccccc1`, 83 to 89 °C. As for `CC(=O)N[C@H]1CC[C@H](c2ccc(N)cc2)CC1`, the figure is 195 to 196 °C; as for `COc1ccc2nc([C@H](CC(C)C)NC(=O)OCc3ccccc3)[nH]c2c1`, 73 to 77 °C. As for `O=C(c1cccs1)c1cnn2c(-c3cccc(-c4ccc(CN5CCOCC5)cc4)c3)ccnc12`, the melting point is 175 to 178 °C. As for `CC(C)S(=O)(=O)c1cc(OCc2ccc(S(C)(=O)=O)cn2)c2[nH]nc(Nc3nccs3)c2c1`, the figure is 160 to 161 °C. For `CC(Oc1ncn(-c2cccc(C(F)(F)F)c2)n1)C(=O)N(C)C` (centres undefined) the value was 126 to 127 °C; for `CC(C)(Oc1ccc2c(c1)CC(NCc1ccccc1)CC2)C(=O)O` (centres undefined), 240 to 242 °C. In turn, `Cc1nc(-c2cc(N)c(=O)[nH]c2C)cs1` came in with a melting point of 192 to 194 °C. In the case of `CCCC(=O)Nc1cc(/C=C/C(=O)N2CC(CCl)c3ccc(NC(=O)OCc4ccc([N+](=O)[O-])cc4)cc32)n(C)c1` (centres undefined), the melting point lay in the range of 207 to 210 °C. For the compound `O=C1COc2ccc3ccccc3c21`, the melting point fell in the range of 194 to 196 °C. In turn, `CCN(CC)CCOc1ccc2cc3ccc(OCCN(CC)CC)c(CO)c3nc2c1CO` gave a melting point of 95 to 96 °C. As for `COc1cccc(NC(=O)c2cc(C#N)cc(C)n2)c1`, the figure is 189 °C.
